Results on one compound are retold here after patent US20070270448A1, “Methods of Using and Compositions Comprising a Jnk Inhibitor for the Treatment and Management of Asbestos-Related Diseases and Disorders” (CELGENE CORPORATION, priority 2003, published 2007).

Data set [1] in a line: Solubility in aqueous media. The class given is physicochemical.
Data set [2] is described as follows: Brain-Blood Plasma Distribution In Vivo. Also on record: species or system Sprague-Dawley rats. The note with it: rat. The procedure: 5-Amino-anthra(9,1-cd)isothiazol-6-one was administered intravenously (10 mg/kg) into the veins of Sprague-Dawley rats. After 2 hr, blood samples were obtained from the animals and their vascular systems were perfused with approximately 100 mL of saline to rid their brains of blood. The brains were removed from the animals, weighed, and homogenized in a 50 mL conical tube containing 10 equivalents (w/v) of methanol/saline (1:1) using a Tissue Tearer (Fischer Scientific). The homogenized material was extracted by adding 600 μL of cold methanol to 250 μL of brain homogenate vortexed for 30 sec and subjected to centrifugation for 5 min. After centrifugation, 600 μL of the resulting supernatant was transferred to a clean tube and evaporated at room temperature under reduced pressure to provide a pellet. […] The brain homogenate analysis samples, plasma analysis samples, and standard analysis samples were analyzed and compared using HPLC by injecting 100 μL of a sample onto a 5 μm C-18 Luna column (4.6 mm×150 mm, commercially available from Phenomenex of Torrance, Calif.) and eluting at 1 mL/min with a linear gradient of 30% aqueous acetonitrile containing 0.1% trifluoroacetic acid to 90% aqueous acetonitrile containing 0.1% trifluoroacetic acid over 8 minutes and holding at 90% aqueous acetonitrile containing 0.1% trifluoroacetic acid for 3 min. with absorbance detection at 450 nm. […]

For data set [3], the system named is rat ventral mesencephalan neurons. Put plainly: [3H]Dopamine Cell Culture Assay (6-OHDA neurotoxicity). The data set is classed as cell-based. The settings on record: 6-OHDA 30 μM, uptake 22 hrs after exposure. The procedure:
Cultures of dopaminergic neurons were prepared according to a modification of the procedure described by Raymon and Leslie (J. Neurochem. 62:1015-1024, 1994). Time-mated pregnant rats were sacrificed on embyronic day 14-15 (crown rump length 11-12 mm) and the embryos removed by cesarean section. The ventral mesencephalon, containing the dopaminergic neurons, was dissected from each embryo. Tissue pieces from approximately 48 embryos were pooled and dissociated both enzymatically and mechanically. An aliquot from the resulting cell suspension was counted and the cells were plated in high glucose DMEM/F12 culture medium with 10% fetal bovine serum at a density of 1×10^5 cells/well of a Biocoat poly-D-lysine-coated 96-well plate. The day following plating was considered 1 day in vitro (DIV). Cells were maintained in a stable environment at 37° C., 95% humidity, and 5% CO2. A partial medium change was performed at 3 DIV. […]
[^3H]Dopamine uptake is used as a measure of the health and integrity of dopaminergic neurons in culture (Prochiantz et al., PNAS 76: 5387-5391, 1979). […] Briefly, cells treated with 6-OHDA in the presence and absence of 5-amino-anthra(9,1-cd)isothiazol-6-one were assessed in the uptake assay 22 hrs after exposure to 6-OHDA. […] Radioactivity was removed and the cultures were washed 3× with ice cold PBS. […]

Each structure is given as a SMILES string.

Consider `Nc1ccc2snc3c2c1C(=O)c1ccccc1-3` [5-amino-anthra(9,1-cd)isothiazol-6-one], for which the “solubility in aqueous media” value in data set [1] is on record as “limited solubility”. In data set [2] (10 mg/kg intravenously, 2 hr post-dose), the brain-drug concentration result was “approximately 65 nmole/g”. Moreover, the blood-brain barrier crossing entry in data set [2] (following intravenous administration) is listed as “crosses the blood-brain barrier to a significant extent”. The “protection of dopaminergic neurons ([3H]dopamine uptake)” value in data set [3] is recorded as “protects rat ventral mesencephalan neurons from the toxic effects of 6-OHDA”.
